Results: article PMC6385104, “Momilactones A and B Are α-Amylase and α-Glucosidase Inhibitors” (Molecules, 2019)

Tests used:
α-amylase = biological target: T1, α-amylase (Aspergillus oryzae, UniProt P0C1B3); assay: biochemical; type: biochemical; details: for IC50: α-amylase from Aspergillus oryzae, starch substrate, 37 °C, pH 6.9, mean ± standard error, read-out: α-Amylase Inhibitory Assay (IC50) (converted)
T1 construct: purchased Sigma-Aldrich
Protocol: The inhibitory effect of MA and MB on α-amylase was assessed by starch-iodine method with a modified model as follows: in each well of a microplate (U-shape, Greiner Bio-one, NC, USA), 20 µL of each either MA or MB were pre-incubated with 20 µL of 1 U/mL α-amylase solution (from Aspergillus oryzae, Sigma-Aldrich, St. Louis, MO, USA) at 37 °C for 10 min. The reaction was initiated by pipetting 30 µL of starch (0.5% in deionized water) (soluble ACS reagent, Sigma-Aldrich, St. Louis, MO, USA). After 6 min incubation at 37 °C, an aliquot of 20 µL of hydrochloric acid (1 M) were added to stop reaction, followed by 120 µL of 0.25 mM aqueous iodine solution. The absorbance at 565 nm was read by a microplate reader (Multiskan^TM Microplate Spectrophotometer, Thermo Fisher Scientific, Osaka, Japan). The inhibitory activity of MA and MB on α-amylase was performed as the inhibition percentage that was calculated by the following formula:% inhibition = (A − C)/(B − C) × 100(2) where A is the absorbance of reaction with presence of MA or MB, B is the absorbance of reaction without enzyme, C is the absorbance of reaction with absence of the momilactones. […] Dilutions of test samples and dissolutions of enzyme used 20 mM sodium phosphate buffer (pH 6.9 comprising of 6 mM sodium chloride). α-Amylase solution and soluble starch solution were prepared and used on the day of experiment.

α-glucosidase = biological target: T2, α-glucosidase (Saccharomyces cerevisiae, UniProt P53341); assay: α-Glucosidase inhibition assay (pNPG substrate); type: biochemical; details: for suppressive property on α-glucosidase relative to acarbose (fold greater than acarbose): ratio of IC50 values versus acarbose; for IC50: α-glucosidase from Saccharomyces cerevisiae, pNPG substrate, 25 °C, pH 7, mean ± standard error, read-out: α-Glucosidase Inhibitory Assay (IC50) (converted)
T2 construct: purchased Sigma-Aldrich
T2 sequence (P53341 whole entry): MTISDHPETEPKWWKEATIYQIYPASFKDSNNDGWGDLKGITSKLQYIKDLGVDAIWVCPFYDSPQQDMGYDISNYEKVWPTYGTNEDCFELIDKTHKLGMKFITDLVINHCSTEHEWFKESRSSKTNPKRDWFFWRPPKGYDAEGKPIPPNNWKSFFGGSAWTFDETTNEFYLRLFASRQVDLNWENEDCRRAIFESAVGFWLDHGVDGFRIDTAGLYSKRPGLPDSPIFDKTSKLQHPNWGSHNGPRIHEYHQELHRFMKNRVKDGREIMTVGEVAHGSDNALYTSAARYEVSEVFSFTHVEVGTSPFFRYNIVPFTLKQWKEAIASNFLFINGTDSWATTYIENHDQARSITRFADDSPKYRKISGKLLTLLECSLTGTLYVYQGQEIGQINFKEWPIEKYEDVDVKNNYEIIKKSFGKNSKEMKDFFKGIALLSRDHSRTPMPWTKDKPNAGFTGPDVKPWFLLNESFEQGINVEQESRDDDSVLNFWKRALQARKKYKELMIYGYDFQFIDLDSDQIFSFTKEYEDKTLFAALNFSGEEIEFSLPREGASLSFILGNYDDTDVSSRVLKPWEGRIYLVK
Protocol: The anti-α-glucosidase activity of MA and MB was evaluated using a method as described previously with some alterations. In brief, an amount of 20 µL methanolic stock solution of MA and MB were pre-mixed with an equal volume of 0.1 M potassium phosphate buffer (pH 7) and 40 µL of α-glucosidase (from Saccharomyces cerevisiae, Sigma-Aldrich, St. Louis, MO, USA) enzyme solution (0.5 U/mL in 0.1 M potassium phosphate buffer, pH 7). After 6 min incubation at 25 °C, a 20 µL aliquot of 5 mM p-nitrophenyl-α-D-glucopyranoside (pNPG) substrate (in 0.1 M potassium phosphate buffer, pH 7) was added to each reaction and the mixture was incubated for another 8 min. Eventually, the reaction was terminated by adding 100 µL of 0.2 M Na2CO3, and absorbance was recorded at 405 nm. […] IC50 value was obtained by the same way as above.

[1] = ratio of IC50 values, MB versus MA

With C=CC1(C)CCC2C(=CC3OC(=O)C4(C)C3C23CCC4(O)OC3)C1 (centres unmarked) [MB, momilactone B] the “inhibitory activity on α-amylase of MB relative to MA (fold stronger)” value (α-amylase; [1]) was 1.8 fold, the IC50 (α-amylase) was 0.444 mM and the “suppressive property on α-glucosidase relative to acarbose (fold greater than acarbose)” value (α-glucosidase) was 4.2 fold. The “inhibitory activity on α-glucosidase of MB relative to MA (fold stronger)” value (α-glucosidase; [1]) was 1.6 fold and the IC50 (α-glucosidase) was 1.85 mM.
With C=C[C@]1(C)CC[C@H]2C(=C[C@H]3OC(=O)[C@@]4(C)C(=O)CC[C@@]2(C)[C@@H]34)C1 [MA, momilactone A] the IC50 (α-amylase) was 0.848 mM, the “suppressive property on α-glucosidase relative to acarbose (fold greater than acarbose)” value (α-glucosidase) was 2.5 fold and the IC50 (α-glucosidase) was 3.15 mM.
